Measurements from patent US20110060036A1, “Branched Multifunctional Nanoparticle Conjugates And Their Use” (EMORY UNIVERSITY, priority 2008, published 2011).

Columns and labels:
MDA-MB-231 tumor = experiment: Therapeutic efficacy test in MDA-MB-231 orthotopic tumor model; assay type: in vivo, athymic nude mice; conditions: for therapeutic outcome in small tumors: tumors about 30 mm^3, i.v. weekly; for therapeutic outcome in small tumors / antitumor effect in large tumors: TX equivalent 30 mg/Kg; for antitumor effect in large tumors: tumors about 120 mm^3, i.v., 4 weekly injections
Protocol: The MDA-MB-231 tumor model was used for testing the in-vivo therapeutic efficacy of these polymer-drug conjugates. MDA-MB-231 tumors were developed in the mammary fat pad of athymic nude mice as discussed above. When the average sizes of the tumor reached 100-120 or ˜30 mm^3, mice were randomly sorted into 4 groups (6 mice each group). A paclitaxel equivalent of 30 mg/kg of free drug and polymer drug conjugates were administered i.v. and the injections were performed weekly. Tumor sizes were measured in two dimensions with calipers and volume was calculated using the following formula: Tumor volume=(length×width^2)/2. The end-point size of this tumor model was set at 1,500 mm^3, 20% weight loss or severe ulceration (more than 20% of tumor areas).
Following the in-vivo blood circulation and tumor targeting tests, the anti-tumor activity of these nanoparticles was evaluated in comparison with free TX using the MDA-MB-231 orthotopic tumor model with two serials trials of tumor sizes of about 120 and 30 mm^3.

[1] = room temperature (25 degrees C.); cited from earlier work
tumor cell cultures = conditions: cited from earlier work

CC(=O)O[C@H]1C(=O)[C@@]2(C)[C@H]([C@H](OC(=O)c3ccccc3)[C@]3(O)C[C@H](OC(=O)[C@H](O)[C@@H](NC(=O)c4ccccc4)c4ccccc4)C(C)=C1C3(C)C)[C@]1(OC(C)=O)CO[C@@H]1C[C@@H]2O [TX, paclitaxel]
histological analysis of tumor sections: Ki67 expression level (MDA-MB-231 tumor; large tumors, TX equivalent 30 mg/Kg weekly): little difference compared to the control | therapeutic outcome in small tumors (MDA-MB-231 tumor): delayed response to the treatment | antitumor effect in large tumors (MDA-MB-231 tumor): little effect on tumor inhibition

CC(C)CCC[C@@H](C)[C@H]1CC[C@H]2[C@@H]3CC=C4C[C@@H](O)CC[C@]4(C)[C@H]3CC[C@]12C [cholesterol]
solubility in water [1]: 10 nanograms/ml

COc1cccc2c1C(=O)c1c(O)c3c(c(O)c1C2=O)C[C@@](O)(C(=O)CO)C[C@@H]3O[C@H]1C[C@H](N)[C@H](O)[C@H](C)O1 [doxorubicin]
solubility in water [1]: 1 milligram/ml

PG-2′-O— succinyl-paclitaxel [GT]
therapeutic outcome in small tumors (MDA-MB-231 tumor): delayed response to the treatment | antitumor effect in large tumors (MDA-MB-231 tumor): significant antitumor effects

calicheamicin
IC50 for inhibition of growth of tumor cell cultures (tumor cell cultures): low picomolar range

dynemicin
IC50 for inhibition of growth of tumor cell cultures (tumor cell cultures): low picomolar range

esperamicin
IC50 for inhibition of growth of tumor cell cultures (tumor cell cultures): low picomolar range
